Results on 19 compounds are retold here after patent publication US20240383886A1, “Protein Tyrosine Phosphatase Degraders and Methods of Use Thereof” (CALICO LIFE SCIENCES LLC, priority 2019, published 2024).

For assay [1], the target named is T1, PTPN2 (Homo sapiens, UniProt P17706).
T1 construct: expressed in transfected cells; host or cells: 293T (293T.109 HiBiT-PTPN2 line; parental 293T WT from ATCC)
T1 sequence (P17706 1-415): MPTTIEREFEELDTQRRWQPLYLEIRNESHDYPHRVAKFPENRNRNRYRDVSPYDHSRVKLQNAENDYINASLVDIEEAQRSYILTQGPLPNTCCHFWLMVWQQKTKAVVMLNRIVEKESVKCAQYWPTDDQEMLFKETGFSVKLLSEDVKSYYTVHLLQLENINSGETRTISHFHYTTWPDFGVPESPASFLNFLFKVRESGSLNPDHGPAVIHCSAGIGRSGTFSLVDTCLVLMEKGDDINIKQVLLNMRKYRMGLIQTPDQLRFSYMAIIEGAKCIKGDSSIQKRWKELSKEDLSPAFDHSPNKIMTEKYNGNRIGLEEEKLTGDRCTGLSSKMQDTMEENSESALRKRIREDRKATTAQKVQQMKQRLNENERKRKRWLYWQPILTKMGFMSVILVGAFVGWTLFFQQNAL
The experiment in a line: HiBiT-Degradation 293T.109 PTPN2 (Nano-Glo HiBiT Lytic Assay). The assay is classed as cell-based. The conditions noted are these: 293T.109 (HiBiT-PTPN2) cells, 24.0 hours. The procedure, abridged: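 Luminescence from a lytic HiBiT read gave PTPN2 levels after 24 h compound exposure at 37° C. Compounds were tested at 11 half-log points from a 10 μM top concentration, in duplicate. The cells were 293T engineered with an N-terminal HiBiT–PTPN2 fusion, plated at 5000 per well, with untreated wells as negative control and no-reagent wells as positive control.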

For assay [2], the system named is PTPN2. Put plainly: HiBiT-Degradation B16F10.4 PTPN2. It counts as cell-based. The conditions noted are these: B16F10.4 cells, 24.0 hours.

What is called DC50 is the concentration at which degradation of the target reaches its halfway point. Read a high DC50 as degradation only at high concentration. For `Cn1c(=O)n(C2CCC(=O)NC2=O)c2ccc(N3CCC(O)(CC(=O)N4CC[C@@H](COc5ccc6cc(O)c(N7CC(=O)NS7(=O)=O)c(F)c6c5)C4)CC3)cc21` (stereo partly drawn) [Example 155, 3-[5-[4-[2-[(3R)-3-[[8-fluoro-6-hydroxy-7-(1,1,4-trioxo-1,2,5-thiadiazolidin-2-yl)-2-naphthyl]oxymethyl]pyrrolidin-1-yl]-2-oxo-ethyl]-4-hydroxy-1-piperidyl]-3-methyl-2-oxo-benzimidazol-1-yl]piperidine-2,6-dione], the DC50 at PTPN2 [1] was in the range of 50 to 200 nM; in the assay on PTPN2 [2], 200 to 1000 nM.

`Cn1c(=O)n(C2CCC(=O)NC2=O)c2ccc(C3CCN(CC(=O)N4CCC(c5ccc6cc(O)c(N7CC(=O)NS7(=O)=O)c(F)c6c5)CC4)CC3)cc21` (centres unmarked) [Example 120, 3-[5-[1-[2-[4-[8-fluoro-6-hydroxy-7-(1,1,4-trioxo-1,2,5-thiadiazolidin-2-yl)-2-naphthyl]-1-piperidyl]-2-oxo-ethyl]-4-piperidyl]-3-methyl-2-oxo-benzimidazol-1-yl]piperidine-2,6-dione]: the DC50 at PTPN2 [1] was 10 to 50 nM; in the assay on PTPN2 [2] it was 50 to 200 nM.

`CC(C)n1c(=O)n(C2CCC(=O)NC2=O)c2ccc(C3CCN(CC(=O)NCCOc4ccc5cc(O)c(N6CC(=O)NS6(=O)=O)c(F)c5c4)CC3)cc21` (centres unmarked) [Example 85, 2-[4-[1-(2,6-dioxo-3-piperidyl)-3-isopropyl-2-oxo-benzimidazol-5-yl]-1-piperidyl]-N-[2-[[8-fluoro-6-hydroxy-7-(1,1,4-trioxo-1,2,5-thiadiazolidin-2-yl)-2-naphthyl]oxy]ethyl]acetamide]: the DC50 at PTPN2 [1] is 50 to 200 nM; in the assay with PTPN2 [2] it was 200 to 1000 nM.

With `Cn1c(=O)n(C2CCC(=O)NC2=O)c2ccc(-c3ccc(CC(=O)Nc4ccc5c(F)c(N6CC(=O)NS6(=O)=O)c(O)cc5c4)cc3F)cc21` (centres unmarked) [Example 118, N-(6-(1,1-dioxido-4-oxo-1,2,5-thiadiazolidin-2-yl)-5-fluoro-7-hydroxynaphthalen-2-yl)-2-(4-(1-(2,6-dioxopiperidin-3-yl)-3-methyl-2-oxo-2,3-dihydro-1H-benzo[d]imidazol-5-yl)-3-fluorophenyl)acetamide], the 50% degradation concentration (DC50) on PTPN2 [1] is 50 to 200 nM; in the assay on PTPN2 [2], 10 to 50 nM.

`CN(c1ccc(C2CCN(CC(=O)NCCOc3ccc4cc(O)c(N5CC(=O)NS5(=O)=O)c(F)c4c3)CC2)cc1)C1CCC(=O)NC1=O` (centres unmarked) [Example 94, 2-[4-[4-[(2,6-dioxo-3-piperidyl)-methyl-amino]phenyl]-1-piperidyl]-N-[2-[[8-fluoro-6-hydroxy-7-(1,1,4-trioxo-1,2,5-thiadiazolidin-2-yl)-2-naphthyl]oxy]ethyl]acetamide]: the DC50 on PTPN2 [1] and with PTPN2 [2] was 200 to 1000 nM in each case.

With `Cn1c(=O)n(C2CCC(=O)NC2=O)c2ccc(N3CCC(CC(=O)N4CCC[C@H](COc5ccc6cc(O)c(N7CC(=O)NS7(=O)=O)c(F)c6c5)C4)CC3)cc21` (stereo partly drawn) [Example 143, 3-[5-[4-[2-[(3S)-3-[[8-fluoro-6-hydroxy-7-(1,1,4-trioxo-1,2,5-thiadiazolidin-2-yl)-2-naphthyl]oxymethyl]-1-piperidyl]-2-oxo-ethyl]-1-piperidyl]-3-methyl-2-oxo-benzimidazol-1-yl]piperidine-2,6-dione], the DC50 on PTPN2 [1] and in the assay on PTPN2 [2] was 200 to 1000 nM each time.

In the case of `Cn1nc([C@@H]2CCC(=O)NC2=O)c2ccc(N3CCC(CC(=O)Nc4ccc5c(F)c(N6CC(=O)NS6(=O)=O)c(O)cc5c4)CC3)cc21` [Example 163, 2-[1-[3-[(3S)-2,6-dioxo-3-piperidyl]-1-methyl-indazol-6-yl]-4-piperidyl]-N-[5-fluoro-7-hydroxy-6-(1,1,4-trioxo-1,2,5-thiadiazolidin-2-yl)-2-naphthyl]acetamide], the DC50 on PTPN2 [1] and in the assay on PTPN2 [2] was 10 to 50 nM each time.

With `O=C1CCC(N2Cc3c(NCC(=O)N4CCC(C(=O)Nc5ccc6c(F)c(N7CC(=O)NS7(=O)=O)c(O)cc6c5)CC4)cccc3C2=O)C(=O)N1` (centres unmarked) [Example 65], the DC50 on PTPN2 [1] and in the assay with PTPN2 [2] was 200 to 1000 nM each time.

As for `Cn1c(=O)n(C2CCC(=O)NC2=O)c2ccc(C3CCN(CC(C)(C)CCOc4ccc5cc(O)c(N6CC(=O)NS6(=O)=O)c(F)c5c4)CC3)cc21` (centres unmarked) [Example 157, 3-[5-[1-[4-[[8-fluoro-6-hydroxy-7-(1,1,4-trioxo-1,2,5-thiadiazolidin-2-yl)-2-naphthyl]oxy]-2,2-dimethyl-butyl]-4-piperidyl]-3-methyl-2-oxo-benzimidazol-1-yl]piperidine-2,6-dione], the DC50 at PTPN2 [1] lay within 10 to 50 nM; with PTPN2 [2], 50 to 200 nM.

For `Cn1nc(C2CCC(=O)NC2=O)c2ccc(C3CCN(CC(=O)Nc4ccc5c(F)c(N6CC(=O)NS6(=O)=O)c(O)cc5c4)CC3)cc21` (centres unmarked) [Example 28, 2-[4-[3-(2,6-dioxo-3-piperidyl)-1-methyl-indazol-6-yl]-1-piperidyl]-N-[5-fluoro-7-hydroxy-6-(1,1,4-trioxo-1,2,5-thiadiazolidin-2-yl)-2-naphthyl]acetamide], the DC50 on PTPN2 [1] is less than 10 nM; with PTPN2 [2], 50 to 200 nM.

Consider `O=C(CN1CCC(c2ccc(NC3CCC(=O)NC3=O)cc2F)CC1)NCCOc1ccc2cc(O)c(N3CC(=O)NS3(=O)=O)c(F)c2c1` (centres unmarked) [Example 10, 2-[4-[4-[(2,6-dioxo-3-piperidyl)amino]-2-fluoro-phenyl]-1-piperidyl]-N-[2-[[8-fluoro-6-hydroxy-7-(1,1,4-trioxo-1,2,5-thiadiazolidin-2-yl)-2-naphthyl]oxy]ethyl]acetamide], for which the DC50 was 50 to 200 nM on PTPN2 [1] and not below 1000 nM in the assay on PTPN2 [2].

As to `Cn1c(=O)n(C2CCC(=O)NC2=O)c2ccc(C3CCN(CCC(=O)N4CC=C(c5ccc6cc(O)c(N7CC(=O)NS7(=O)=O)c(F)c6c5)C4)CC3)cc21` (centres unmarked) [Example 89, 3-[5-[1-[3-[3-[8-fluoro-6-hydroxy-7-(1,1,4-trioxo-1,2,5-thiadiazolidin-2-yl)-2-naphthyl]-2,5-dihydropyrrol-1-yl]-3-oxo-propyl]-4-piperidyl]-3-methyl-2-oxo-benzimidazol-1-yl]piperidine-2,6-dione], the DC50 at PTPN2 [1] and in the assay with PTPN2 [2] was 50 to 200 nM throughout.

Regarding `Cn1c(=O)n(C2CCC(=O)NC2=O)c2ccc(C3CCN(CCN4CC[C@H](COc5ccc6cc(O)c(N7CC(=O)NS7(=O)=O)c(F)c6c5)C4)CC3)cc21` (stereo partly drawn) [Example 150, 3-[5-[1-[2-[(3S)-3-[[8-fluoro-6-hydroxy-7-(1,1,4-trioxo-1,2,5-thiadiazolidin-2-yl)-2-naphthyl]oxymethyl]pyrrolidin-1-yl]ethyl]-4-piperidyl]-3-methyl-2-oxo-benzimidazol-1-yl]piperidine-2,6-dione], the DC50 at PTPN2 [1] and with PTPN2 [2] was 50 to 200 nM throughout.

Consider `Cn1c(=O)n(C2CCC(=O)NC2=O)c2ccc(C3CCN(CCCCOc4ccc5cc(O)c(N6CC(=O)NS6(=O)=O)c(F)c5c4)CC3)cc21` (centres unmarked) [Example 128, 3-[5-[1-[4-[[8-fluoro-6-hydroxy-7-(1,1,4-trioxo-1,2,5-thiadiazolidin-2-yl)-2-naphthyl]oxy]butyl]-4-piperidyl]-3-methyl-2-oxo-benzimidazol-1-yl]piperidine-2,6-dione], for which the values for the DC50 at PTPN2 [1] and in the assay on PTPN2 [2] were 50 to 200 nM and 200 to 1000 nM, respectively.

Take `Cn1c(=O)n(C2CCC(=O)NC2=O)c2ccc(C3CCN(C(=O)NCCOc4ccc5cc(O)c(N6CC(=O)NS6(=O)=O)c(F)c5c4)CC3)cc21` (centres unmarked) [Example 31]: the DC50 at PTPN2 [1] was 200 to 1000 nM; in the assay on PTPN2 [2], not below 1000 nM.

Consider `Cn1c(=O)n(C2CCC(=O)NC2=O)c2ccc(C3CCN(CCCCCCOc4ccc5cc(O)c(N6CC(=O)NS6(=O)=O)c(F)c5c4)CC3)cc21` (centres unmarked) [Example 98, 3-[5-[1-[6-[[8-fluoro-6-hydroxy-7-(1,1,4-trioxo-1,2,5-thiadiazolidin-2-yl)-2-naphthyl]oxy]hexyl]-4-piperidyl]-3-methyl-2-oxo-benzimidazol-1-yl]piperidine-2,6-dione], for which the DC50 was 10 to 50 nM on PTPN2 [1] and 50 to 200 nM in the assay with PTPN2 [2].

In the case of `Cn1nc(C2CCC(=O)NC2=O)c2ccc(-c3ccc(CC(=O)Nc4ccc5c(F)c(N6CC(=O)NS6(=O)=O)c(O)cc5c4)cc3)cc21` (centres unmarked) [Example 177, N-(6-(1,1-dioxido-4-oxo-1,2,5-thiadiazolidin-2-yl)-5-fluoro-7-hydroxynaphthalen-2-yl)-2-(4-(3-(2,6-dioxopiperidin-3-yl)-1-methyl-1H-indazol-6-yl)phenyl)acetamide], the DC50 on PTPN2 [1] lay within 10 to 50 nM; in the assay with PTPN2 [2] it was 50 to 200 nM.

As for `O=C1CCC(N2C(=O)c3cccc4c(C5CCN(CC(=O)N6CC(Oc7ccc8cc(O)c(N9CC(=O)NS9(=O)=O)c(F)c8c7)C6)CC5(F)F)ccc2c34)C(=O)N1` (centres unmarked) [Example 165, 3-[6-[3,3-difluoro-1-[2-[3-[[8-fluoro-6-hydroxy-7-(1,1,4-trioxo-1,2,5-thiadiazolidin-2-yl)-2-naphthyl]oxy]azetidin-1-yl]-2-oxo-ethyl]-4-piperidyl]-2-oxo-benzo[cd]indol-1-yl]piperidine-2,6-dione], the DC50 on PTPN2 [1] was in the range of 10 to 50 nM; with PTPN2 [2], 50 to 200 nM.

Take `Cn1c(=O)n(C2CCC(=O)NC2=O)c2ccc(-c3ccc(CC(=O)Nc4ccc5c(F)c(N6CC(=O)NS6(=O)=O)c(O)cc5c4)cc3)cc21` (centres unmarked) [Example 77, 2-[4-[1-(2,6-dioxo-3-piperidyl)-3-methyl-2-oxo-benzimidazol-5-yl]phenyl]-N-[5-fluoro-7-hydroxy-6-(1,1,4-trioxo-1,2,5-thiadiazolidin-2-yl)-2-naphthyl]acetamide]: the DC50 on PTPN2 [1] and in the assay with PTPN2 [2] was 10 to 50 nM each time.
